Experiments:
[1] = molecular target: human recombinant MAGL (Homo sapiens (Human), UniProt Q99685); assay: In vitro inhibition of MAGL activity (inhibitor screening kit, 4-nitrophenylacetate); type: biochemical; conditions: human recombinant MAGL
Summary of the method: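 Colorimetric kit assay: recombinant human MAGL hydrolyses 4-nitrophenylacetate to 4-nitrophenol, read by absorbance at 405-412 nm. Inhibition given as percentage of signal in treated versus untreated MAGL control.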

[2] = molecular target: human recombinant FAAH (Homo sapiens (Human), UniProt O00519); assay: In vitro inhibition of FAAH activity (fluorescent inhibitor screening kit, AMC arachidonoyl amide); type: biochemical; conditions: human recombinant FAAH; read-out: Inhibition on FAAH activity (IC50)
Chain of human recombinant FAAH (O00519 whole entry): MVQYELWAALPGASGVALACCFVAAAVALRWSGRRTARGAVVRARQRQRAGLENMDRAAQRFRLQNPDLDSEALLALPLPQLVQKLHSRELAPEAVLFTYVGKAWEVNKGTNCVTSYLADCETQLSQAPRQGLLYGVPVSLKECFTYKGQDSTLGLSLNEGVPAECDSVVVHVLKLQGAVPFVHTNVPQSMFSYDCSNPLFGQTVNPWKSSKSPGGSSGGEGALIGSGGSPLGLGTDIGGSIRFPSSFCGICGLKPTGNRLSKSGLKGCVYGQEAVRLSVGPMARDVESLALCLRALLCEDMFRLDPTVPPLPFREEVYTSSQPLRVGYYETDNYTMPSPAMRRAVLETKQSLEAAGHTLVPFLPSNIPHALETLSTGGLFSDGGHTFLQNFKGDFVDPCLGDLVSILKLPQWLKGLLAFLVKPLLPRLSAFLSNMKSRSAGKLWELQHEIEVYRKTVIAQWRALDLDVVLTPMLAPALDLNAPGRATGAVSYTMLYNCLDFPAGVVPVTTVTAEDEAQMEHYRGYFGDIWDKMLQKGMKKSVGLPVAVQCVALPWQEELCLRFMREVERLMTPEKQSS
Summary of the method: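 Fluorogenic kit assay: AMC arachidonoyl amide is cleaved by human recombinant FAAH, read at 340-360/450-465 nm. Percent inhibition versus non-treated control; IC50 values derived from multiple compound concentrations where tested.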

Chain of human recombinant MAGL (Q99685 whole entry): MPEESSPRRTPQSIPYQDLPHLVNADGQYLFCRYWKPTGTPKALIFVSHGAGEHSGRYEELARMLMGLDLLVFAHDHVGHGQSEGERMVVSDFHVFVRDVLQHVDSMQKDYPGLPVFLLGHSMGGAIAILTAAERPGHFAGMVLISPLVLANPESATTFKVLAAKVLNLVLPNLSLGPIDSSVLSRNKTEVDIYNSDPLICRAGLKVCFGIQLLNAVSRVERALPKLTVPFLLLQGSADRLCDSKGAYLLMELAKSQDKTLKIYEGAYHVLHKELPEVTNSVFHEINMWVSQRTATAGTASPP

SMILES | IC50 [1] [µM] | IC50 [2] [µM]
COc1ccc(OC(=O)NC2CCCC2)cc1-c1cncc(-c2ncn[nH]2)c1 [Example 235, 3-(5-(1H-1,2,4-triazol-5-yl)pyridin-3-yl)-4-methoxyphenyl cyclopentylcarbamate] | > 10 | 0.1 to 1
CN(C)c1ccc(OC(=O)NCC2CCCCC2)cc1-c1cncc(-c2nnco2)c1 [Example 181, 3-(5-(1,3,4-oxadiazol-2-yl)pyridin-3-yl)-4-(dimethylamino)phenyl (cyclohexylmethyl)carbamate] | > 10 | ~1
CSc1ccc(OC(=O)NC2CCCC2)cc1-c1cncc(-c2nnco2)c1 [Example 189, 3-(5-(1,3,4-oxadiazol-2-yl)pyridin-3-yl)-4-(methylthio)phenyl cyclopentylcarbamate] | > 10 | 0.1 to 1
COc1ccc(OC(=O)NCc2ccccc2)cc1-c1cncc(-c2ccco2)c1 [Example 55, 3-(5-(furan-2-yl)pyridin-3-yl)-4-methoxyphenyl benzylcarbamate] | ~10 | ~1
O=C(NC1CCCC1)Oc1cc(O)cc(-c2cncc(-c3nnco3)c2)c1 [Example 163, 3-(5-(1,3,4-oxadiazol-2-yl)pyridin-3-yl)-5-hydroxyphenyl cyclopentylcarbamate] | > 50 | 0.01 to 0.1
O=C(NC1CCCCC1)Oc1cccc(-c2cncc(-c3ncn[nH]3)c2)c1 [Example 224, 3-(5-(1H-1,2,4-triazol-5-yl)pyridin-3-yl)phenyl cyclohexylcarbamate] | > 10 | 0.1 to 1
O=C(NC1CCCC1)Oc1cccc(-c2cncc(-c3nncs3)c2)c1 [Example 210, 3-(5-(1,3,4-thiadiazol-2-yl)pyridin-3-yl)phenyl cyclopentylcarbamate] | > 10 | ~0.1
O=C(NCC1CCCCC1)Oc1cccc(-c2cncc(-c3ncco3)c2)c1 [Example 74, 3-(5-(oxazol-2-yl)pyridin-3-yl)phenyl (cyclohexylmethyl)carbamate] | > 1 | 0.01 to 0.1
O=Cc1cncc(-c2cccc(OC(=O)NC3CCCC3)c2)c1 [Example 18, 3-(5-formylpyridin-3-yl)phenyl cyclopentylcarbamate] | > 10 | 0.01 to 0.1
CCCCCCCCNC(=O)Oc1cc(OC)cc(-c2cncc(-c3nnco3)c2)c1 [Example 174, 3-(5-(1,3,4-oxadiazol-2-yl)pyridin-3-yl)-5-methoxyphenyl octylcarbamate] | ~10 | 0.001 to 0.01
O=C(NCc1ccccc1)Oc1cccc(-c2cncc(-c3nccs3)c2)c1 [Example 117, 3-(5-(thiazol-2-yl)pyridin-3-yl)phenyl benzylcarbamate] | > 10 | 0.1 to 1
CCCCCCCCNC(=O)Oc1ccc(OC)c(-c2cncc(-c3ccno3)c2)c1 [Example 109, 3-(5-(isoxazol-5-yl)pyridin-3-yl)-4-methoxyphenyl octylcarbamate] | ~10 | 0.001 to 0.01
O=C(NC1CCCCCC1)Oc1cccc(-c2cncc(-c3nccs3)c2)c1 [Example 120, 3-(5-(thiazol-2-yl)pyridin-3-yl)phenyl cycloheptylcarbamate] | ~10 | 0.01 to 0.1
CCCCCCCCNC(=O)Oc1ccc(OC)c(-c2cncc(-c3nccs3)c2)c1 [Example 121, 4-methoxy-3-(5-(thiazol-2-yl)pyridin-3-yl)phenyl octylcarbamate] | ~10 | 0.01 to 0.1
CCCCCCCCNC(=O)Oc1ccc(OC(F)(F)F)c(-c2cncc(-c3nnco3)c2)c1 [Example 199, 3-(5-(1,3,4-oxadiazol-2-yl)pyridin-3-yl)-4-(trifluoromethoxy)phenyl octylcarbamate] | 1 to 10 | 0.01 to 0.1
COC(=O)c1cncc(-c2cccc(OC(=O)NC3CCCC3)c2)c1 [Example 11, methyl 5-(3-((cyclopentylcarbamoyl)oxy)phenyl)nicotinate] | > 10 | 0.01 to 0.1
CC1CCC(NC(=O)Oc2ccc(OC(F)(F)F)c(-c3cncc(-c4nnco4)c3)c2)CC1 (centres unmarked) [Example 201] | > 1 | 0.1 to 1
COc1ccc(OC(=O)NCC2CCCCC2)cc1-c1cncc(-c2cccs2)c1 [Example 66, 4-methoxy-3-(5-(thiophen-2-yl)pyridin-3-yl)phenyl (cyclohexylmethyl)carbamate] | ~10 | 0.1 to 1
O=C(NC1CCCCCC1)Oc1cccc(-c2cncc(-c3nnco3)n2)c1 [Example 268, 3-(6-(1,3,4-oxadiazol-2-yl)pyrazin-2-yl)phenyl cycloheptylcarbamate] | 1 to 10 | 0.01 to 0.1

SMILES | IC50 [1] [µM] | IC50 [2] [µM]
O=C(NC1CCCCCC1)Oc1ccc(O)c(-c2cncc(-c3nnn[nH]3)c2)c1 [Example 249, 3-(5-(1H-tetrazol-5-yl)pyridin-3-yl)-4-hydroxyphenyl cycloheptylcarbamate] | > 10 | > 1
CCCCCCCCNC(=O)Oc1cc(F)cc(-c2cncc(-c3nnco3)c2)c1 [Example 195, 3-(5-(1,3,4-oxadiazol-2-yl)pyridin-3-yl)-5-fluorophenyl octylcarbamate] | ~1 | 0.001 to 0.01
O=C(NCc1ccccc1)Oc1cccc(-c2cncc(-c3cccs3)c2)c1 [Example 61, 3-(5-(thiophen-2-yl)pyridin-3-yl)phenyl benzylcarbamate] | > 10 | ~0.1
O=C(NC1CCCCC1)Oc1cccc(-c2cncc(-c3cccs3)c2)c1 [Example 63, 3-(5-(thiophen-2-yl)pyridin-3-yl)phenyl cyclohexylcarbamate] | > 10 | 0.01 to 0.1
N#Cc1cncc(-c2cccc(OC(=O)NC3CCCCC3)c2)c1 [Example 28, 3-(5-cyanopyridin-3-yl)phenyl cyclohexylcarbamate] | > 10 | 0.1 to 1
Cc1cc(OC(=O)NC2CCCCCCC2)cc(-c2cncc(-c3ncco3)c2)c1 [Example 104, 3-methyl-5-(5-(oxazol-2-yl)pyridin-3-yl)phenyl cyclooctylcarbamate] | ~10 | 0.1 to 1
CCOC(=O)c1cncc(-c2cccc(OC(=O)Nc3ccc(F)cc3)c2)c1 [Example 7, ethyl 5-(3-(((4-fluorophenyl)carbamoyl)oxy)phenyl)nicotinate] | > 10 | > 1
O=C(NC1CCCC1)Oc1cccc(-c2cncc(C(F)(F)F)c2)c1 [Example 32, 3-(5-(trifluoromethyl)pyridin-3-yl)phenyl cyclopentylcarbamate] | > 10 | 0.01 to 0.1
Cc1cc(OC(=O)NC2CCC(C)CC2)cc(-c2cncc(-c3ncco3)c2)c1 (centres unmarked) [Example 102, 3-methyl-5-(5-(oxazol-2-yl)pyridin-3-yl)phenyl (4-methylcyclohexyl)carbamate] | > 10 | > 1
CC1CCC(NC(=O)Oc2cccc(-c3cc(-c4nnco4)ccn3)c2)CC1 (centres unmarked) [Example 261, 3-(4-(1,3,4-oxadiazol-2-yl)pyridin-2-yl)phenyl (4-methylcyclohexyl)carbamate] | > 1 | 0.1 to 1
COc1cc(OC(=O)NC2CCCC2)cc(-c2cncc(-c3nnco3)c2)c1 [Example 177, 3-(5-(1,3,4-oxadiazol-2-yl)pyridin-3-yl)-5-methoxyphenyl cyclopentylcarbamate] | > 10 | 0.1 to 1
O=C(NCC1CCCCC1)Oc1cccc(-c2cncc(-c3nncs3)c2)c1 [Example 208, 3-(5-(1,3,4-thiadiazol-2-yl)pyridin-3-yl)phenyl (cyclohexylmethyl)carbamate] | > 10 | 0.01 to 0.1
O=C(NCC1CCCCC1)Oc1cccc(-c2cncc(-c3nccs3)c2)c1 [Example 116, 3-(5-(thiazol-2-yl)pyridin-3-yl)phenyl (cyclohexylmethyl)carbamate] | ~10 | 0.01 to 0.1
O=C(NC1CCCCCC1)Oc1cccc(-c2cncc(-c3ccc[nH]3)c2)c1 [Example 40, 3-(5-(1H-pyrrol-2-yl)pyridin-3-yl)phenyl cycloheptylcarbamate] | ~10 | 0.01 to 0.1
O=C(NC1CCCCC1)Oc1cccc(-c2cncc(-c3ncco3)c2)c1 [Example 76, 3-(5-(oxazol-2-yl)pyridin-3-yl)phenyl cyclohexylcarbamate] | 1 to 10 | 0.01 to 1
O=C(NC1CCCCC1)Oc1cccc(-c2cncc(-c3nccs3)c2)c1 [Example 119, 3-(5-(thiazol-2-yl)pyridin-3-yl)phenyl cyclohexylcarbamate] | > 10 | 0.01 to 0.1
COc1ccc(OC(=O)NC2CCC(C)CC2)cc1-c1cncc(-c2ncco2)c1 (centres unmarked) [Example 82, 4-methoxy-3-(5-(oxazol-2-yl)pyridin-3-yl)phenyl (4-methylcyclohexyl)carbamate] | > 10 | 0.1 to 1
O=C(NCC1CCCCC1)Oc1cccc(-c2cncc(-c3ccco3)c2)c1 [Example 48, 3-(5-(furan-2-yl)pyridin-3-yl)phenyl (cyclohexylmethyl)carbamate] | ~10 | 0.01 to 0.1

Source: US20250129027A1 (APOGEE PHARMACEUTICALS, INC., priority 2023, published 2025)
